We go through 34 compounds from patent US9120808B2 (NABRIVA THERAPEUTICS AG, priority 2009, dated 2015).

Experiment [1] addresses SHV-1 β-lactamase (Klebsiella pneumoniae, UniProt P0AD64). Put plainly: Cell-free β-lactamase inhibition study (nitrocefin hydrolysis). The format is biochemical. Conditions: 10 min pre-incubation at 37° C., nitrocefin substrate. Here is the method:
(§1) Cell-Free-β-Lactamase Inhibition Study
(§2) Assays are performed with β-lactamases expressed in the pET system (Novagen, San Diego, Calif.) without signal peptides. They contain an N-terminal hexa-Histidine tag that is used for purification on Ni-NTA (Qiagen, Hilden, Germany). The compounds are prepared as 50 mM stocks in DMSO and diluted into buffer P1 (50 mM phosphate, pH 7) to a final concentration of 10% DMSO. All further dilutions are done in P2 (P1 with 10% DMSO). Enzyme and compound dilutions are pre-incubated for 10 min at 37° C. and the reaction is started with the addition of pre-warmed (37° C.) nitrocefin at a final concentration of […]. […] The initial velocity is determined and IC50 values are calculated using non-linear regression and sigmoidal dose response analysis with the PRISM 4.0 software (Graphpad Software Inc., San Diego, Calif.).

Experiment [2] deals with TEM-1 β-lactamase (Escherichia coli, UniProt P62593). The experiment is described as above. Particulars: 10 min pre-incubation at 37° C., nitrocefin substrate. The experiment is classed as biochemical. Here is the method:
as §1, §2

Each structure is given as a SMILES string. Read-outs that look alike come from different tables or passages of the source.

TEM-1 β-lactamase, sequence (P62593 whole entry, looked up): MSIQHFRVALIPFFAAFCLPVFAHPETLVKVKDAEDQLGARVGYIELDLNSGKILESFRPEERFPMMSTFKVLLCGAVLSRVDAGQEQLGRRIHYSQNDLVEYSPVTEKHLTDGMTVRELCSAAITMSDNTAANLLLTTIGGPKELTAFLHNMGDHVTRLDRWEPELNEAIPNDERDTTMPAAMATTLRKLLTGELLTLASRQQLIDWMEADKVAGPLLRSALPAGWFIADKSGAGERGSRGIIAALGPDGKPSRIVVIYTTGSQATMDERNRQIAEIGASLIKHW
SHV-1 β-lactamase, sequence (P0AD64 whole entry, looked up): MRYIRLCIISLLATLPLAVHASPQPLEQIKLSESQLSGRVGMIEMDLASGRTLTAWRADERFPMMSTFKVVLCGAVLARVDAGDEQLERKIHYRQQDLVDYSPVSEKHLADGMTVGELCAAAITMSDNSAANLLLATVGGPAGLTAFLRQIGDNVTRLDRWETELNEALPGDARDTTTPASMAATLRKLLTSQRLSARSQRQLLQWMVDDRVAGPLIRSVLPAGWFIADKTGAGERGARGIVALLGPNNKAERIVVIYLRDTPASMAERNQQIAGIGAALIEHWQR

The IC50 is the concentration at which inhibition is half-maximal. As to `O=CC=C1O[C@@H]2CC(=O)N2C1(C/C=C/c1ccccc1)C(=O)OCc1ccccc1` (single isomer, unassigned) [Example 6], the IC50 was found to be 3950 nM in experiment [1] (SHV-1, read-out: IC50) and 2790 nM in experiment [2].
On to `O=CC=C1O[C@@H]2CC(=O)N2C1(CC=CCO)C(=O)OCc1ccccc1` (single isomer, unassigned) [Example 8], for which, in experiment [2], inhibition was half-maximal at 5640 nM (IC50).
As to `O=CC=C1O[C@@H]2CC(=O)N2C1(CC=CCO)C(=O)OCc1ccccc1` (single isomer, unassigned) [Example 9], the IC50 in experiment [1] (SHV-1, read-out: IC50) was 1040 nM; in experiment [2], 828 nM.
In the same order, the values of `COC(=O)C1(C/C=C/c2ccccc2)C(=CC=O)O[C@@H]2CC(=O)N21` (single isomer, unassigned) [Example 14] are 85100 nM and 19600 nM.
With `COC(=O)C1(C/C=C/c2ccccc2)C(=CC=O)O[C@@H]2CC(=O)N21` (single isomer, unassigned) [Example 15], the concentration for half-maximal inhibition (IC50) was found to be 4430 nM in experiment [1] (SHV-1, read-out: IC50) and 4270 nM in experiment [2].
The corresponding values for `O=C(O)C=C1O[C@@H]2CC(=O)N2C1(C/C=C/c1ccccc1)C(=O)OCc1ccccc1` (single isomer, unassigned) [Example 27] are 624 nM and 426 nM.
The corresponding values for `O=C(O)C=C1O[C@@H]2CC(=O)N2C1(C/C=C/c1ccccc1)C(=O)OCc1ccccc1` (single isomer, unassigned) [Example 28] are 9320 nM and 45700 nM.
The corresponding values for `COC(=O)C1(C/C=C/c2ccccc2)C(=CC(=O)O)O[C@@H]2CC(=O)N21` (single isomer, unassigned) [Example 35] are 2310 nM and 1560 nM.
Consider `COC(=O)C1(C/C=C/c2ccccc2)C(=CC(=O)O)O[C@@H]2CC(=O)N21` (single isomer, unassigned) [Example 36], for which the IC50 in experiment [1] (SHV-1, read-out: IC50) worked out at 642 nM; in experiment [2] it was 408 nM.
As to `O=C1OC(CI)CC1=C1O[C@@H]2CC(=O)N2C1C(=O)OCc1ccccc1` (single isomer, unassigned) [Example 41], the IC50 was 0.4 nM in experiment [1] (SHV-1, read-out: IC50) and 0.2 nM in experiment [2].
The corresponding values for `O=C1OC(CI)CC1=C1O[C@@H]2CC(=O)N2C1C(=O)OCc1ccccc1` (single isomer, unassigned) [Example 42] are 0.8 nM and 1.7 nM.
As for `CC1C/C(=C2\O[C@@H]3CC(=O)N3C2C(=O)OCc2ccccc2)C(=O)O1` (single isomer, unassigned) [Example 45], the IC50 in experiment [1] (IC50, SHV-1) was 3.4 nM; in experiment [2], 1.7 nM.
As for `CC1C/C(=C2\O[C@@H]3CC(=O)N3C2C(=O)OCc2ccccc2)C(=O)O1` (single isomer, unassigned) [Example 46], the IC50 in experiment [1] (SHV-1, read-out: IC50) is 0.5 nM; in experiment [2], 0.4 nM.
On to `C=CCC(C=O)=C1O[C@@H]2CC(=O)N2C1C(=O)OCc1ccccc1` (stereo partly drawn) [Example 1, (5R)-3-(1-Formyl-but-3-enylidene)-7-oxo-4-oxa-1-aza-bicyclo[3.2.0]heptane-2-carboxylic acid benzyl ester], for which the IC50 in experiment [2] is 66.6 nM.
Still for that read-out and setting: then `C=CCC1(C(=O)OCc2ccccc2)C(=CC=O)O[C@@H]2CC(=O)N21` (stereo partly drawn) [Example 2, (5R)-2-Allyl-7-oxo-3-[2-oxo-ethylidene]-4-oxa-1-aza-bicyclo[3.2.0]heptane-2-carboxylic acid benzyl ester], with 945 nM; and `C=CCC(C=O)=C1O[C@@H]2CC(=O)N2C1(CC=C)C(=O)OCc1ccccc1` (stereo partly drawn) [Example 3, (5R)-2-Allyl-3-[1-formyl-but-3-enylidene]-7-oxo-4-oxa-1-aza-bicyclo[3.2.0]heptane-2-carboxylic acid benzyl ester], with 8390 nM; and `O=CC(C/C=C/c1ccccc1)=C1O[C@@H]2CC(=O)N2C1C(=O)OCc1ccccc1` (stereo partly drawn) [Example 4, (5R)-3-[1-Formyl-4-phenyl-but-3-enylidene]-7-oxo-4-oxa-1-aza-bicyclo[3.2.0]heptane-2-carboxylic acid benzyl ester], with 89 nM.
For `O=CC=C1O[C@@H]2CC(=O)N2C1(C/C=C/c1ccccc1)C(=O)OCc1ccccc1` (stereo partly drawn) [Example 5, (5R)-7-oxo-3-[2-oxo-ethylidene]-2-(3-phenyl-allyl)-4-oxa-1-aza-bicyclo[3.2.0]heptane-2-carboxylic acid benzyl ester], the IC50 in experiment [1] (SHV-1, read-out: IC50) was 7140 nM; in experiment [2], 4920 nM.
In the case of `O=CC(CC=CCO)=C1O[C@@H]2CC(=O)N2C1C(=O)OCc1ccccc1` (stereo partly drawn) [Example 7, (5R)-3-[1-Formyl-5-hydroxy-pent-3-enylidene]-7-oxo-4-oxa-1-aza-bicyclo[3.2.0]heptane-2-carboxylic acid benzyl ester], the half-maximal inhibitory concentration (IC50) in experiment [1] (IC50, SHV-1) was determined as 217 nM; in experiment [2] it was 78.4 nM.
In turn, `CC(=O)OCC=CCC(C=O)=C1O[C@@H]2CC(=O)N2C1C(=O)OCc1ccccc1` (stereo partly drawn) [Example 10, (5R)-3-[5-Acetoxy-1-formyl-pent-3-enylidene]-7-oxo-4-oxa-1-aza-bicyclo[3.2.0]heptane-2-carboxylic acid benzyl ester] registered an IC50 in experiment [2] of 140 nM.
In the case of `CC(=O)OCC=CCC1(C(=O)OCc2ccccc2)C(=CC=O)O[C@@H]2CC(=O)N21` (stereo partly drawn) [Example 11, (5R)-2-(4-Acetoxy-but-2-enyl)-7-oxo-3-[2-oxo-ethylidene]-4-oxa-1-aza-bicyclo[3.2.0]heptane-2-carboxylic acid benzyl ester], in experiment [2], the midpoint of inhibition, the IC50, lay at 7310 nM.
With `CC(=O)OCC=CCC1(C(=O)OCc2ccccc2)C(=CC=O)O[C@@H]2CC(=O)N21` (stereo partly drawn) [Example 12, (5R)-2-(4-Acetoxy-but-2-enyl)-7-oxo-3-[2-oxo-ethylidene]-4-oxa-1-aza-bicyclo[3.2.0]heptane-2-carboxylic acid benzyl ester], in experiment [2], inhibition was half-maximal at 5900 nM (IC50).
`COC(=O)C1C(=C(C=O)C/C=C/c2ccccc2)O[C@@H]2CC(=O)N12` (some centres unmarked) [Example 13]: in experiment [2], the half-maximal inhibitory concentration (IC50) was 639 nM.
As to `C=CCC(C=O)=C1O[C@@H]2CC(=O)N2C1C(=O)OC` (stereo partly drawn) [Example 16, (5R)-3-[1-Formyl-but-3-enylidene]-7-oxo-4-oxa-1-aza-bicyclo[3.2.0]heptane-2-carboxylic acid methyl ester], the IC50 was found to be 80.5 nM in experiment [1] (SHV-1, read-out: IC50) and 65.2 nM in experiment [2].
In the case of `C=CCC1(C(=O)OC)C(=CC=O)O[C@@H]2CC(=O)N21` (stereo partly drawn) [Example 17, (5R)-2-Allyl-7-oxo-3-[2-oxo-ethylidene]-4-oxa-1-aza-bicyclo[3.2.0]heptane-2-carboxylic acid methyl ester], the IC50 in experiment [1] (SHV-1, read-out: IC50) is 21300 nM; in experiment [2], 13300 nM.
In the same order, the values of `CC(C)(C)C(=O)OCOC(=O)C1C(=C(C=O)C/C=C/c2ccccc2)O[C@@H]2CC(=O)N12` (stereo partly drawn) [Example 18, (5R)-3-[1-Formyl-4-phenyl-but-3-enylidene]-7-oxo-4-oxa-1-aza-bicyclo[3.2.0]heptane-2-carboxylic acid 2,2-dimethyl-propionyloxymethyl ester] are 13.9 nM and 27.1 nM.
In the same order, the values of `CC(C)(C)C(=O)OCOC(=O)C1(C/C=C/c2ccccc2)C(=CC=O)O[C@@H]2CC(=O)N21` (stereo partly drawn) [Example 19, (5R)-7-oxo-3-(2-oxo-ethylidene)-2-(3-phenyl-allyl)-4-oxa-1-aza-bicyclo[3.2.0]heptane-2-carboxylic acid 2,2-dimethyl-propionyloxymethyl ester] are 617 nM and 871 nM.
The corresponding values for `C=CCC(C(=O)O)=C1O[C@@H]2CC(=O)N2C1C(=O)OCc1ccccc1` (stereo partly drawn) [Example 24, (5R)-3-(1-Carboxy-but-3-enylidene)-7-oxo-4-oxa-1-aza-bicyclo[3.2.0]heptane-2-carboxylic acid benzyl ester] are 62.2 nM and 30.6 nM.
Turning to `O=C(O)C(C/C=C/c1ccccc1)=C1O[C@@H]2CC(=O)N2C1C(=O)OCc1ccccc1` (stereo partly drawn) [Example 26, (5R)-3-[1-Carboxy-4-phenyl-but-3-enylidene]-7-oxo-4-oxa-1-aza-bicyclo[3.2.0]heptane-2-carboxylic acid benzyl ester], the half-maximal inhibitory concentration (IC50) worked out at 36.3 nM in experiment [1] (SHV-1, read-out: IC50) and 9.2 nM in experiment [2].
Consider `C=CCC(C(=O)O)=C1O[C@@H]2CC(=O)N2C1C(=O)OC` (stereo partly drawn) [Example 32, (5R)-3-(1-Carboxy-but-3-enylidene)-7-oxo-4-oxa-1-aza-bicyclo[3.2.0]heptane-2-carboxylic acid methyl ester], for which the 50% inhibitory concentration (IC50) was determined as 339 nM in experiment [1] (SHV-1, read-out: IC50) and 122 nM in experiment [2].
In the same order, the values of `COC(=O)C1C(=C(C/C=C/c2ccccc2)C(=O)O)O[C@@H]2CC(=O)N12` (stereo partly drawn) [Example 34, (5R)-3-(1-Carboxy-4-phenyl-but-3-enylidene)-7-oxo-4-oxa-1-aza-bicyclo[3.2.0]heptane-2-carboxylic acid methyl ester] are 50.3 nM and 21.7 nM.
Turning to `C=CCC1(C(=O)OCc2ccccc2)/C(=C/CO)O[C@@H]2CC(=O)N21` (stereo partly drawn) [Example 40, (5R)-2-Allyl-3-[2-hydroxy-ethylidene]-7-oxo-4-oxa-1-aza-bicyclo[3.2.0]heptane-2-carboxylic acid benzyl ester], the concentration for half-maximal inhibition (IC50) in experiment [2] was found to be 23600 nM.
Consider `CC1CC(=C2O[C@@H]3CC(=O)N3C2C(=O)O)C(=O)O1` (stereo partly drawn) [Example 50, (5R)-3-(5-Methyl-2-oxo-dihydro-furan-3-ylidene)-7-oxo-4-oxa-1-aza-bicyclo[3.2.0]heptane-2-carboxylic acid], for which half-maximal inhibition in experiment [2] (IC50) was put at 4.2 nM.
Take `COC(=O)C1/C(=C2/CC(CI)OC2=O)O[C@@H]2CC(=O)N12` (some centres unmarked) [Mixture of Example 43 and Example 44]: in experiment [1] (SHV-1, read-out: IC50), the IC50 was 4.3 nM.
